Assay results taken from patent publication US8937167B2 (Washington University, priority 2009, dated 2015).
Read-outs that look alike come from different tables or passages of the source.

Molecular target: FimH (Escherichia coli, UniProt Q1R2J4)
Settings: for HAI Titer EC>50: Table 21
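Further: hemagglutination inhibition of guinea pig erythrocytes agglutinated by type 1 piliated uropathogenic E. coli via FimH mannose binding, quantified through serial dilutions of compound.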

| Structure (SMILES) | HAI Titer EC>90 [µM] | further results |
| --- | --- | --- |
| CS(=O)(=O)Nc1ccccc1-c1ccc(OC2OC(CO)C(O)C(O)C2O)cc1 (stereo not shown) [Compound 3ZFH163, N-[2-[4-[3,4,5-trihydroxy-6-(hydroxymethyl)tetrahydropyran-2-yl]oxyphenyl]phenyl]methanesulfonamide] | 12.000 | – |
| CNS(=O)(=O)c1ccccc1-c1ccc(OC2OC(CO)C(O)C(O)C2O)cc1 (stereo not shown) [Compound 3ZFH176, N-methyl-2-[4-[3,4,5-trihydroxy-6-(hydroxymethyl)tetrahydropyran-2-yl]oxyphenyl]benzenesulfonamide] | 4.000 | – |
| CNS(=O)(=O)c1cccc(-c2ccc(OC3OC(CO)C(O)C(O)C3O)cc2)c1 (stereo not shown) [Compound 3ZFH179, N-methyl-3-[4-[3,4,5-trihydroxy-6-(hydroxymethyl)tetrahydropyran-2-yl]oxyphenyl]benzenesulfonamide] | 1.000 | – |
| COc1ccccc1-c1ccc(OC2OC(CO)C(O)C(O)C2O)cc1 (stereo not shown) [Compound 3ZFH188, 2-(hydroxymethyl)-6-[4-(2-methoxyphenyl)phenoxy]tetrahydropyran-3,4,5-triol] | 2.000 | – |
| COc1cccc(-c2ccc(OC3OC(CO)C(O)C(O)C3O)cc2)c1 (stereo not shown) [Compound 3ZFH190, 2-(hydroxymethyl)-6-[4-(3-methoxyphenyl)phenoxy]tetrahydropyran-3,4,5-triol] | 1.500 | – |
| COC(=O)c1cc(-c2ccc(OC3OC(CO)C(O)C(O)C3O)cc2)ccn1 [Compound 3ZFH220, methyl 4-[4-(a-D-mannopyranosyloxy)phenyl]pyridine-2-carboxylate] | 0.500 | – |
| NCCOCCOCCNC(=O)c1cc(-c2ccc(OC3OC(CO)C(O)C(O)C3O)cc2)cc([N+](=O)[O-])c1 (stereo not shown) [Compound 3ZFH245, N-[2-[2-(2-aminoethoxy)ethoxy]ethyl]-3-nitro-5-[4-[3,4,5-trihydroxy-6-(hydroxymethyl)tetrahydropyran-2-yl]oxyphenyl]benzamide] | 0.25 | – |
| O=C(Nc1ccncc1)c1cccc(-c2ccc(OC3OC(CO)C(O)C(O)C3O)cc2)c1 (stereo not shown) [Compound 3ZFH256, N-(4-pyridyl)-3-[4-[3,4,5-trihydroxy-6-(hydroxymethyl)tetrahydropyran-2-yl]oxyphenyl]benzamide] | 0.25 | – |
| CN1CCN(C(=O)c2cccc(-c3ccc(OC4OC(CO)C(O)C(O)C4O)cc3)c2)CC1 (stereo not shown) [Compound 3ZFH261, (4-methylpiperazin-1-yl)-[3-[4-[3,4,5-trihydroxy-6-(hydroxymethyl)tetrahydropyran-2-yl]oxyphenyl]phenyl]methanone] | 4.000 | – |
| O=C(Nc1cccnc1)c1cccc(-c2ccc(OC3OC(CO)C(O)C(O)C3O)cc2)c1 (stereo not shown) [Compound 3ZFH265, N-(3-pyridyl)-3-[4-[3,4,5-trihydroxy-6-(hydroxymethyl)tetrahydropyran-2-yl]oxyphenyl]benzamide] | 0.375 | – |
| CN(C)C(=NCCNC(=O)c1cccc(-c2ccc(OC3OC(CO)C(O)C(O)C3O)cc2)c1)N(C)C (stereo not shown) [Compound 3ZFH270, N-[2-[bis(dimethylamino)methyleneamino]ethyl]-3-[4-[3,4,5-trihydroxy-6-(hydroxymethyl)tetrahydropyran-2-yl]oxyphenyl]benzamide] | 2.000 | – |
| O=C(NCCO)c1cccc(-c2ccc(OC3OC(CO)C(O)C(O)C3O)cc2)c1 (stereo not shown) [Compound 3ZFH276, N-(2-hydroxyethyl)-3-[4-[3,4,5-trihydroxy-6-(hydroxymethyl)tetrahydropyran-2-yl]oxyphenyl]benzamide] | 0.5000 | – |
| NCCNC(=O)c1cccc(-c2ccc(OC3OC(CO)C(O)C(O)C3O)cc2)c1 (stereo not shown) [Compound 3ZFH280, N-(2-aminoethyl)-3-[4-[3,4,5-trihydroxy-6-(hydroxymethyl)tetrahydropyran-2-yl]oxyphenyl]benzamide] | 3.000 | – |
| O=C(c1cccc(-c2ccc(OC3OC(CO)C(O)C(O)C3O)cc2)c1)N1CCNCC1 (stereo not shown) [Compound 3ZFH284, piperazin-1-yl-[3-[4-[3,4,5-trihydroxy-6-(hydroxymethyl)tetrahydropyran-2-yl]oxyphenyl]phenyl]methanone] | 4.0000 | – |
| COC(=O)c1cccc(OC2OC(CO)C(O)C(O)C2O)c1 (stereo not shown) [Compound 3j] | – | fold loss of HA potency (carboxylic acid relative to matched pair methyl ester 3j): 10 fold |
| N#Cc1ccccc1OC1OC(CO)C(O)C(O)C1O (stereo not shown) [Compound 3m] | – | EC50 (read-out: HA 50% Titer, Table 10, Example 6 numbering): 6 µM |
| COC(=O)c1cccc(-c2ccc(NC3OC(CO)C(O)C(O)C3O)cc2)c1 (stereo not shown) [Compound 4ZFH44, methyl 3-[4-[[3,4,5-trihydroxy-6-(hydroxymethyl)tetrahydropyran-2-yl]amino]phenyl]benzoate] | 4.000 | – |
| COC(=O)c1cccc(-c2ccc(OC3OC(CO)C(O)C(O)C3O)c(Cl)c2)c1 (stereo not shown) [Compound 4ZFH49, methyl 3-[3-chloro-4-[3,4,5-trihydroxy-6-(hydroxymethyl)tetrahydropyran-2-yl]oxy-phenyl]benzoate] | 0.032 | – |
| COC(=O)c1sc(-c2ccc(OC3OC(CO)C(O)C(O)C3O)cc2)cc1NC(N)=O (stereo not shown) [Compound 4ZFH52-JJ, methyl 5-[4-[3,4,5-trihydroxy-6-(hydroxymethyl)tetrahydropyran-2-yl]oxyphenyl]-3-ureido-thiophene-2-carboxylate] | 0.016 | – |
| COC(=O)c1cccc(-c2ccc(SC3OC(CO)C(O)C(O)C3O)cc2)c1 (stereo not shown) [Compound 4ZFH55, methyl 3-[4-[3,4,5-trihydroxy-6-(hydroxymethyl)tetrahydropyran-2-yl]sulfanylphenyl]benzoate] | 4.000 | – |
| COC(=O)c1cccc(-c2ccc(NC(=O)C3OC(CO)C(O)C(O)C3O)cc2)c1 (stereo not shown) [Compound 4ZFH89, methyl 3-[4-[[3,4,5-trihydroxy-6-(hydroxymethyl)tetrahydropyran-2-carbonyl]amino]phenyl]benzoate] | 16.000 | – |
| OCC1OC(n2cc(-c3ccccc3)nn2)C(O)C(O)C1O (stereo not shown) [Compound 4ZFH105, 2-(hydroxymethyl)-6-(4-phenyltriazol-1-yl)tetrahydropyran-3,4,5-triol] | 32.000 | – |
| O=C(NCC1O[C@@H](CO)[C@@H](O)[C@H](O)[C@H]1O)c1ccc(Br)cc1 (stereo partly drawn) [Compound 4ZFH123, 4-bromo-N-[[(3R,4R,5S,6S)-3,4,5-trihydroxy-6-(hydroxymethyl)tetrahydropyran-2-yl]methyl]benzamide] | 16.000 | HAI Titer EC>50 (ZFH/JWJ codes): 16.000 µM; HAI Titer EC>90 (Table 22, ZFH/JWJ codes): 16.000 µM |
| COC(=O)c1cccc(-c2ccc(C(=O)NCC3O[C@@H](CO)[C@@H](O)[C@H](O)[C@H]3O)cc2)c1 (stereo partly drawn) [Compound 4ZFH131, methyl 3-[4-[[(3R,4R,5S,6S)-3,4,5-trihydroxy-6-(hydroxymethyl)tetrahydropyran-2-yl]methylcarbamoyl]phenyl]benzoate] | 16.000 | HAI Titer EC>50 (ZFH/JWJ codes): 16.000 µM; HAI Titer EC>90 (Table 22, ZFH/JWJ codes): 16.000 µM |
| COC(=O)c1cccc(-c2ccc(OC3O[C@@H](CO)[C@@H](O)[C@H](O)[C@H]3O)c(F)c2)c1 (stereo partly drawn) [Compound 4ZFH220, methyl 3-[3-fluoro-4-[(3R,4S,5S,6S)-3,4,5-trihydroxy-6-(hydroxymethyl)tetrahydropyran-2-yl]oxy-phenyl]benzoate] | 0.750 | HAI Titer EC>50 (ZFH/JWJ codes): 0.750 µM; HAI Titer EC>90 (Table 22, ZFH/JWJ codes): 0.750 µM |
